Reference: PubChem BioAssay (NCI)
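GI50: concentration for 50% inhibition of growth. TGI is the concentration that stops growth completely.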

What was measured:
Test in all cases: NCI anticancer screen, dose series, 384-well format
786-0 renal = system: 786-0 renal
CAKI-1 renal = system: CAKI-1 renal
CCRF-CEM leukemia = system: CCRF-CEM leukemia
COLO 205 colon = system: COLO 205 colon
EKVX NSCLC = system: EKVX NSCLC
HCC-2998 colon = system: HCC-2998 colon
HCT-116 colon = system: HCT-116 colon
HCT-15 colon = system: HCT-15 colon
HL-60(TB) leukemia = system: HL-60(TB) leukemia
HOP-62 NSCLC = system: HOP-62 NSCLC
HOP-92 NSCLC = system: HOP-92 NSCLC
HS 578T breast = system: HS 578T breast
K-562 leukemia = system: K-562 leukemia
KM12 colon = system: KM12 colon
LOX IMVI melanoma = system: LOX IMVI melanoma
MCF7 breast = system: MCF7 breast
MDA-MB-231 breast = system: MDA-MB-231 breast
MDA-MB-468 breast = system: MDA-MB-468 breast
MOLT-4 leukemia = system: MOLT-4 leukemia
NCI-H226 lung = system: NCI-H226 lung
NCI-H23 lung = system: NCI-H23 lung
NCI-H322M lung = system: NCI-H322M lung
NCI-H522 lung = system: NCI-H522 lung
NCI/ADR-RES ovarian = system: NCI/ADR-RES ovarian
OVCAR-3 ovarian = system: OVCAR-3 ovarian
OVCAR-4 ovarian = system: OVCAR-4 ovarian
OVCAR-5 ovarian = system: OVCAR-5 ovarian
OVCAR-8 ovarian = system: OVCAR-8 ovarian
PC-3 prostate = system: PC-3 prostate
RPMI-8226 leukemia = system: RPMI-8226 leukemia
RXF 393 renal = system: RXF 393 renal
SF-295 CNS = system: SF-295 CNS
SF-539 CNS = system: SF-539 CNS
SK-MEL-2 melanoma = system: SK-MEL-2 melanoma
SK-MEL-28 melanoma = system: SK-MEL-28 melanoma
SK-MEL-5 melanoma = system: SK-MEL-5 melanoma
SK-OV-3 ovarian = system: SK-OV-3 ovarian
SN12C renal = system: SN12C renal
SNB-19 CNS = system: SNB-19 CNS
SNB-75 CNS = system: SNB-75 CNS
SR leukemia = system: SR leukemia
SW-620 colon = system: SW-620 colon
T-47D breast = system: T-47D breast
TK-10 renal = system: TK-10 renal
U251 glioblastoma = system: U251 glioblastoma
UACC-257 melanoma = system: UACC-257 melanoma
UO-31 renal = system: UO-31 renal

`COc1cc2nccc(Oc3ccc(NC(=O)C4(C(=O)Nc5ccc(F)cc5)CC4)cc3)c2cc1OC` was tested. Which GI50 ([…]-0 renal) did it give?
The GI50 was 4.47 µM.

And the TGI (786-0 renal)?
Its TGI is 19 µM.

What about the GI50 (CAKI-1 renal) of the same compound?
The GI50 was 2.62 µM.

What about the TGI (CAKI-1 renal) of the same compound?
The TGI was 9.96 µM.

And the GI50 (CCRF-CEM leukemia)?
Its GI50 is 1.96 µM.

What about the TGI (CCRF-CEM leukemia) of the same compound?
The TGI was 3.52 µM.

And the GI50 (COLO 205 colon)?
The GI50 was 2.14 µM.

What about the TGI (COLO 205 colon) of the same compound?
The TGI was 4.97 µM.

What about the GI50 (EKVX NSCLC) of the same compound?
The GI50 was 4.64 µM.

And the TGI (EKVX NSCLC)?
The TGI was 15.7 µM.

And the GI50 (HCC-2998 colon)?
Its GI50 is 5.73 µM.

What about the TGI (HCC-2998 colon) of the same compound?
Its TGI is 14 µM.

What about the GI50 (HCT-116 colon) of the same compound?
Its GI50 is 3.78 µM.

What about the TGI (HCT-116 colon) of the same compound?
The TGI was 14.2 µM.

What about the GI50 (HCT-15 colon) of the same compound?
Its GI50 is 3.22 µM.

And the TGI (HCT-15 colon)?
The TGI was 10.4 µM.

And the GI50 (HL-60(TB) leukemia)?
Its GI50 is 2.71 µM.

What about the TGI (HL-60(TB) leukemia) of the same compound?
The TGI was 5.24 µM.

What about the GI50 (HOP-62 NSCLC) of the same compound?
Its GI50 is 5.16 µM.

And the TGI (HOP-62 NSCLC)?
Its TGI is 24.2 µM.

What about the GI50 (HOP-92 NSCLC) of the same compound?
Its GI50 is 1.29 µM.

What about the TGI (HOP-92 NSCLC) of the same compound?
The TGI was 4.93 µM.

What about the GI50 (HS 578T breast) of the same compound?
The GI50 was 1.96 µM.

What about the TGI (HS 578T breast) of the same compound?
The TGI was 6.4 µM.

What about the GI50 (K-562 leukemia) of the same compound?
Its GI50 is 0.295 µM.

And the TGI (K-562 leukemia)?
The TGI was 1.07 µM.

And the GI50 (KM12 colon)?
The GI50 was 0.0614 µM.

What about the TGI (KM12 colon) of the same compound?
Its TGI is 14.3 µM.

What about the GI50 (LOX IMVI melanoma) of the same compound?
Its GI50 is 3.24 µM.

And the TGI (LOX IMVI melanoma)?
The TGI was 9.47 µM.

What about the GI50 (MCF7 breast) of the same compound?
Its GI50 is 3.55 µM.

What about the TGI (MCF7 breast) of the same compound?
Its TGI is 11.1 µM.

What about the GI50 (MDA-MB-231 breast) of the same compound?
Its GI50 is 2.48 µM.

And the TGI (MDA-MB-231 breast)?
The TGI was 6.76 µM.

What about the GI50 (MDA-MB-468 breast) of the same compound?
The GI50 was 3.67 µM.

And the TGI (MDA-MB-468 breast)?
The TGI was 9.4 µM.

And the GI50 (MOLT-4 leukemia)?
Its GI50 is 1.55 µM.

What about the TGI (MOLT-4 leukemia) of the same compound?
Its TGI is 3.62 µM.

And the GI50 (NCI-H226 lung)?
Its GI50 is 1.41 µM.

And the TGI (NCI-H226 lung)?
The TGI was 4.74 µM.

And the GI50 (NCI-H23 lung)?
The GI50 was 1.34 µM.

And the TGI (NCI-H23 lung)?
The TGI was 6.54 µM.

What about the GI50 (NCI-H322M lung) of the same compound?
Its GI50 is 3.36 µM.

What about the TGI (NCI-H322M lung) of the same compound?
Its TGI is 16 µM.

What about the GI50 (NCI-H522 lung) of the same compound?
The GI50 was 2.79 µM.

What about the TGI (NCI-H522 lung) of the same compound?
Its TGI is 7.77 µM.

What about the GI50 (NCI/ADR-RES ovarian) of the same compound?
The GI50 was 2.52 µM.

What about the TGI (NCI/ADR-RES ovarian) of the same compound?
The TGI was 9.33 µM.

And the GI50 (OVCAR-3 ovarian)?
Its GI50 is 3.36 µM.

What about the TGI (OVCAR-3 ovarian) of the same compound?
Its TGI is 10.2 µM.

What about the GI50 (OVCAR-4 ovarian) of the same compound?
The GI50 was 4.01 µM.

And the TGI (OVCAR-4 ovarian)?
The TGI was 13.1 µM.

What about the GI50 (OVCAR-5 ovarian) of the same compound?
Its GI50 is 2.96 µM.

And the TGI (OVCAR-5 ovarian)?
The TGI was 10.7 µM.

And the GI50 (OVCAR-8 ovarian)?
Its GI50 is 3.88 µM.

What about the TGI (OVCAR-8 ovarian) of the same compound?
Its TGI is 14.6 µM.

And the GI50 (PC-3 prostate)?
The GI50 was 3.8 µM.

What about the TGI (PC-3 prostate) of the same compound?
The TGI was 15.4 µM.

And the GI50 (RPMI-8226 leukemia)?
The GI50 was 3.09 µM.

What about the TGI (RPMI-8226 leukemia) of the same compound?
The TGI was 7.73 µM.

And the GI50 (RXF 393 renal)?
Its GI50 is 2.73 µM.

What about the TGI (RXF 393 renal) of the same compound?
Its TGI is 5.49 µM.

What about the GI50 (SF-295 CNS) of the same compound?
Its GI50 is 1.08 µM.

And the TGI (SF-295 CNS)?
The TGI was 6.02 µM.

What about the GI50 (SF-539 CNS) of the same compound?
The GI50 was 1.32 µM.

What about the TGI (SF-539 CNS) of the same compound?
Its TGI is 4.74 µM.

What about the GI50 (SK-MEL-2 melanoma) of the same compound?
Its GI50 is 3.07 µM.

What about the TGI (SK-MEL-2 melanoma) of the same compound?
The TGI was 7.42 µM.

And the GI50 (SK-MEL-28 melanoma)?
Its GI50 is 3.01 µM.

What about the TGI (SK-MEL-28 melanoma) of the same compound?
Its TGI is 11.3 µM.

What about the GI50 (SK-MEL-5 melanoma) of the same compound?
Its GI50 is 2.19 µM.

What about the TGI (SK-MEL-5 melanoma) of the same compound?
The TGI was 6.58 µM.

And the GI50 (SK-OV-3 ovarian)?
The GI50 was 4.97 µM.

What about the TGI (SK-OV-3 ovarian) of the same compound?
Its TGI is 15.8 µM.

What about the GI50 (SN12C renal) of the same compound?
Its GI50 is 0.372 µM.

And the TGI (SN12C renal)?
The TGI was 4.71 µM.

What about the GI50 (SNB-19 CNS) of the same compound?
Its GI50 is 7.3 µM.

And the TGI (SNB-19 CNS)?
The TGI was over 55.2 µM.

And the GI50 (SNB-75 CNS)?
Its GI50 is 1.29 µM.

And the TGI (SNB-75 CNS)?
The TGI was 4.35 µM.

What about the GI50 (SR leukemia) of the same compound?
Its GI50 is 2.95 µM.

What about the TGI (SR leukemia) of the same compound?
Its TGI is 4.49 µM.

What about the GI50 (SW-620 colon) of the same compound?
Its GI50 is 2.13 µM.

What about the TGI (SW-620 colon) of the same compound?
The TGI was 5.57 µM.

What about the GI50 (T-47D breast) of the same compound?
Its GI50 is 2.78 µM.

What about the TGI (T-47D breast) of the same compound?
Its TGI is 10 µM.

And the GI50 (TK-10 renal)?
Its GI50 is 7.66 µM.

What about the TGI (TK-10 renal) of the same compound?
Its TGI is 33.7 µM.

What about the GI50 (U251 glioblastoma) of the same compound?
Its GI50 is 5.32 µM.

And the TGI (U251 glioblastoma)?
The TGI was 17.9 µM.

What about the GI50 (UACC-257 melanoma) of the same compound?
The GI50 was 4.62 µM.

And the TGI (UACC-257 melanoma)?
Its TGI is 12.6 µM.

And the GI50 (UO-31 renal)?
Its GI50 is 3.16 µM.

What about the TGI (UO-31 renal) of the same compound?
Its TGI is 9.08 µM.
